Reference: ChEMBL document CHEMBL1201862, “PubChem BioAssay data set” (2004)
Calls of active or inactive are those of the source.

Columns and labels:
Fatty acid synthase = Fatty acid synthase (Homo sapiens, UniProt P49327); test: inhibition of human FAS-TE enzyme activity – biochemical, kinetic fluorescence intensity, dose response (AID 624326); format: functional;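 note: rate of fluorescence rise from hydrolysis of a fluorogenic O-methyl fluorescein ester substrate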
[1] = target: Voltage-dependent T-type calcium channel subunit alpha-1H (Homo sapiens, UniProt O95180); format: functional;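 note: channel activity triggered by adding a high calcium stimulation buffer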
Genome polyprotein = Genome polyprotein (dengue virus type 2, UniProt P29990); test: flavivirus cap methylation enzyme inhibition – biochemical, confirmation dose response, primary screen (AID 588689); format: functional
Leucine aminopeptidase = target: T1, Leucine aminopeptidase (Plasmodium falciparum 3D7, UniProt Q8IL11); test: P. falciparum M17LAP inhibitors, primary screen, biochemical, fluorogenic H-Leu-NHMec substrate, 1536-well (AID 1619); format: functional
T1 sequence (Q8IL11 whole entry): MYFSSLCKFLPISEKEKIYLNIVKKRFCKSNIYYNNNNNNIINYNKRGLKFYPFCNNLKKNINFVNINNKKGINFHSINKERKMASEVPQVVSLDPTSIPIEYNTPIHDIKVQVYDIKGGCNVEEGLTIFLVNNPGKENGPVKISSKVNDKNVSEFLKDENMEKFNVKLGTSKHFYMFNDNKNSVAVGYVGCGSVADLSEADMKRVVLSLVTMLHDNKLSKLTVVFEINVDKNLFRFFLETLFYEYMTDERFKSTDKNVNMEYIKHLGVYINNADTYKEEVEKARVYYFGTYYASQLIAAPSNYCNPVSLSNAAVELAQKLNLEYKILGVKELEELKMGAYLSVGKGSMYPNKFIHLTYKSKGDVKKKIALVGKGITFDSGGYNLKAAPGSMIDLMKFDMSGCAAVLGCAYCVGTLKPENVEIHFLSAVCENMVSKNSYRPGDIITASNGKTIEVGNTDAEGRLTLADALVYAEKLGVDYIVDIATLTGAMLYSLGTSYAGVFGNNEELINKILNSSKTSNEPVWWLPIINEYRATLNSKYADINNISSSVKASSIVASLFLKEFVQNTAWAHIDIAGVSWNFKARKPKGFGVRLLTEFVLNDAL

Cytochrome P450 2C9 = Cytochrome P450 2C9 (Homo sapiens, UniProt P11712)
Cytochrome P450 2D6 = Cytochrome P450 2D6 (Homo sapiens, UniProt P10635);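 note: CYP2D6 member of a cytochrome P450 panel assay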
[2] = target: Induced myeloid leukemia cell differentiation protein Mcl-1 (Homo sapiens, UniProt Q07820); format: functional
[3] = NIH3T3 cell viability loss – ATP luminescence, mouse fibroblasts, counter-screen, dose response (AID 2010); format: functional, cell-based;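 note: cells exposed to compound for about 90 hours before reading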
[4] = blockade of melanocortin 4 receptor signaling – cell-based, plate reader, cherry pick, counter-screen for LGR2 antagonist project, dose response (AID 743444); format: functional;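 note: transfected HEK 293 cells stimulated with alpha-MSH peptide; potency of inhibitors of the alpha-MSH evoked signal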
[5] = Trypanosoma cruzi growth suppression in host cells – NIH3T3 host cells, beta-gal luminescence, confirmation (AID 2044); format: functional, cell-based;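 note: intracellular parasites grown in NIH/3T3 mouse fibroblasts as host cells; luminescent beta-galactosidase reporter signal from transgenic T. cruzi replicating inside host cells; inhibitors lower the luminescence signal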
[6] = blockers of bursicon-stimulated LGR2 cAMP reporter – cell-based, HEK293, CRE-luciferase reporter, cherry pick, set 2, dose response (AID 743343); format: functional;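 note: transfected cells were stimulated with diluted bursicon conditioned medium after compound addition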
Cytochrome P450 1A2 = target: T2, Cytochrome P450 1A2 (Homo sapiens, UniProt P05177);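 note: PubChem cytochrome P450 panel assay, CYP1A2 panel member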
T2 sequence (P05177 whole entry): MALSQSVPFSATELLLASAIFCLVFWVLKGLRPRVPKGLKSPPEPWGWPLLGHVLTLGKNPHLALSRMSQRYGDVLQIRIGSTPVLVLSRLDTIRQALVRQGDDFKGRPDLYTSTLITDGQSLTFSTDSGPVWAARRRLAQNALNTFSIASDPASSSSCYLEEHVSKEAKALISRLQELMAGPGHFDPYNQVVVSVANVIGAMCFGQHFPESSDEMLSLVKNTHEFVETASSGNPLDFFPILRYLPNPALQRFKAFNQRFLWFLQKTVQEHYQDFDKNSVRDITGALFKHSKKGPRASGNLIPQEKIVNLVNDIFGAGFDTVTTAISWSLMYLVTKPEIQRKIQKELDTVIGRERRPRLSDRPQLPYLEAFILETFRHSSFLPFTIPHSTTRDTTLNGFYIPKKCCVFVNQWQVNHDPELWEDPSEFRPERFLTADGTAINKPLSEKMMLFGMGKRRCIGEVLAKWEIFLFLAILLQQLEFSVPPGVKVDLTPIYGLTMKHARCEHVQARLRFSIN

[7] = Luminescence Cell-Based Dose Retest to Confirm Inhibitors of Cancer Stem Cells. [Related pubchem assays (depositor defined):AID2717, AID2721]; format: functional; conditions: Homo sapiens
[8] = HPDE-C7 pancreatic duct cell viability loss – fluorescence, HTS (AID 430); format: functional, cell-based; conditions: Homo sapiens
[9] = viability loss of HPDE-C7K cells – cell-based, fluorescence, HTS, primary screen (AID 431); format: functional; conditions: Homo sapiens
[10] = viability of HCT116 lacking mutant beta-catenin – cell-based, human colon tumor, dose response (AID 1045); format: functional;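 note: HCT116 colon tumor cells with beta catenin knocked out; cells exposed to compound for 60 hours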
[11] = viability of PTEN-deleted HCT116 cells – cell-based, HCT116 PTEN knockout, dose response (AID 1047); format: functional;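 note: HCT116 colon tumor cells with PTEN knocked out; cells exposed to compound for 60 hours before readout; potency for loss of cell viability measured by luminescence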
[12] = target: T3, RNA-binding protein pos-1 (Caenorhabditis elegans, UniProt G5EF15); test: disruptors of C. elegans POS-1 RNA interaction – biochemical, fluorescence polarization, dose response (AID 1964);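 note: purified POS-1 fused to maltose binding protein made in E. coli; potency of compounds blocking POS-1 binding to fluorescent RNA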
T3 sequence (G5EF15 whole entry): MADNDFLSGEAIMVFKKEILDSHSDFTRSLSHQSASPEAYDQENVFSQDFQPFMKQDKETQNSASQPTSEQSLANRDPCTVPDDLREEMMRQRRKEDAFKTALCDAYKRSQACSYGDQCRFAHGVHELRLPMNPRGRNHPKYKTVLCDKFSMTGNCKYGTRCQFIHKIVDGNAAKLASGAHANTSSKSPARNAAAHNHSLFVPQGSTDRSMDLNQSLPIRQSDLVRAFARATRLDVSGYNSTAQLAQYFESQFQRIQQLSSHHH

[13] = target: T4, Endoribonuclease toxin MazF (Escherichia coli K-12, UniProt P0AE70); test: substrate-only fluorescence increase artefacts – biochemical, single-stranded RNase substrate, counter-screen for MazEF activator project, dose response (AID 588502); format: functional
T4 sequence (P0AE70 whole entry): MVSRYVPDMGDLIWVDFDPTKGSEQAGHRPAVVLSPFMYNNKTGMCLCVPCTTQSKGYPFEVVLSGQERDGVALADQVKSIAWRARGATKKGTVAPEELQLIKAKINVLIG

[14] = target: T4, Endoribonuclease toxin MazF; test: activation of MazEF endoribonuclease cleavage – biochemical, fluorescence, single-stranded RNA substrate, uHTS hits, dose response (AID 588481); format: functional
[15] = target: T5, Zinc finger protein mex-5 (Caenorhabditis elegans, UniProt Q9XUB2); test: potency of MEX-5 RNA-binding blockers – biochemical, C. elegans, fluorescence polarization, dose response (AID 1960)
T5 sequence (Q9XUB2 whole entry): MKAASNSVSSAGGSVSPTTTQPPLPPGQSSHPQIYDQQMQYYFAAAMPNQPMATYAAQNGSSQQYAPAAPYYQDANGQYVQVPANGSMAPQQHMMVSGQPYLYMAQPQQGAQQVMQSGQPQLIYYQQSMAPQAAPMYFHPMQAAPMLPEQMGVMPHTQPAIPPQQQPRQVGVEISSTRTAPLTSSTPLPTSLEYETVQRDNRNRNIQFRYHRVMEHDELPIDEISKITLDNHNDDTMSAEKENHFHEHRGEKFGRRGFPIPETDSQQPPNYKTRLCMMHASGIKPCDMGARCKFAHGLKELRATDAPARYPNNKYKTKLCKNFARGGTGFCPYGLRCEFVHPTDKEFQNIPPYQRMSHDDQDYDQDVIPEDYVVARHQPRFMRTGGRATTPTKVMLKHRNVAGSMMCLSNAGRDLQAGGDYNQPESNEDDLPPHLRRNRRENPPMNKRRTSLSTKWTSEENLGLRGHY

Chain of Voltage-dependent T-type calcium channel subunit alpha-1H (O95180 whole entry): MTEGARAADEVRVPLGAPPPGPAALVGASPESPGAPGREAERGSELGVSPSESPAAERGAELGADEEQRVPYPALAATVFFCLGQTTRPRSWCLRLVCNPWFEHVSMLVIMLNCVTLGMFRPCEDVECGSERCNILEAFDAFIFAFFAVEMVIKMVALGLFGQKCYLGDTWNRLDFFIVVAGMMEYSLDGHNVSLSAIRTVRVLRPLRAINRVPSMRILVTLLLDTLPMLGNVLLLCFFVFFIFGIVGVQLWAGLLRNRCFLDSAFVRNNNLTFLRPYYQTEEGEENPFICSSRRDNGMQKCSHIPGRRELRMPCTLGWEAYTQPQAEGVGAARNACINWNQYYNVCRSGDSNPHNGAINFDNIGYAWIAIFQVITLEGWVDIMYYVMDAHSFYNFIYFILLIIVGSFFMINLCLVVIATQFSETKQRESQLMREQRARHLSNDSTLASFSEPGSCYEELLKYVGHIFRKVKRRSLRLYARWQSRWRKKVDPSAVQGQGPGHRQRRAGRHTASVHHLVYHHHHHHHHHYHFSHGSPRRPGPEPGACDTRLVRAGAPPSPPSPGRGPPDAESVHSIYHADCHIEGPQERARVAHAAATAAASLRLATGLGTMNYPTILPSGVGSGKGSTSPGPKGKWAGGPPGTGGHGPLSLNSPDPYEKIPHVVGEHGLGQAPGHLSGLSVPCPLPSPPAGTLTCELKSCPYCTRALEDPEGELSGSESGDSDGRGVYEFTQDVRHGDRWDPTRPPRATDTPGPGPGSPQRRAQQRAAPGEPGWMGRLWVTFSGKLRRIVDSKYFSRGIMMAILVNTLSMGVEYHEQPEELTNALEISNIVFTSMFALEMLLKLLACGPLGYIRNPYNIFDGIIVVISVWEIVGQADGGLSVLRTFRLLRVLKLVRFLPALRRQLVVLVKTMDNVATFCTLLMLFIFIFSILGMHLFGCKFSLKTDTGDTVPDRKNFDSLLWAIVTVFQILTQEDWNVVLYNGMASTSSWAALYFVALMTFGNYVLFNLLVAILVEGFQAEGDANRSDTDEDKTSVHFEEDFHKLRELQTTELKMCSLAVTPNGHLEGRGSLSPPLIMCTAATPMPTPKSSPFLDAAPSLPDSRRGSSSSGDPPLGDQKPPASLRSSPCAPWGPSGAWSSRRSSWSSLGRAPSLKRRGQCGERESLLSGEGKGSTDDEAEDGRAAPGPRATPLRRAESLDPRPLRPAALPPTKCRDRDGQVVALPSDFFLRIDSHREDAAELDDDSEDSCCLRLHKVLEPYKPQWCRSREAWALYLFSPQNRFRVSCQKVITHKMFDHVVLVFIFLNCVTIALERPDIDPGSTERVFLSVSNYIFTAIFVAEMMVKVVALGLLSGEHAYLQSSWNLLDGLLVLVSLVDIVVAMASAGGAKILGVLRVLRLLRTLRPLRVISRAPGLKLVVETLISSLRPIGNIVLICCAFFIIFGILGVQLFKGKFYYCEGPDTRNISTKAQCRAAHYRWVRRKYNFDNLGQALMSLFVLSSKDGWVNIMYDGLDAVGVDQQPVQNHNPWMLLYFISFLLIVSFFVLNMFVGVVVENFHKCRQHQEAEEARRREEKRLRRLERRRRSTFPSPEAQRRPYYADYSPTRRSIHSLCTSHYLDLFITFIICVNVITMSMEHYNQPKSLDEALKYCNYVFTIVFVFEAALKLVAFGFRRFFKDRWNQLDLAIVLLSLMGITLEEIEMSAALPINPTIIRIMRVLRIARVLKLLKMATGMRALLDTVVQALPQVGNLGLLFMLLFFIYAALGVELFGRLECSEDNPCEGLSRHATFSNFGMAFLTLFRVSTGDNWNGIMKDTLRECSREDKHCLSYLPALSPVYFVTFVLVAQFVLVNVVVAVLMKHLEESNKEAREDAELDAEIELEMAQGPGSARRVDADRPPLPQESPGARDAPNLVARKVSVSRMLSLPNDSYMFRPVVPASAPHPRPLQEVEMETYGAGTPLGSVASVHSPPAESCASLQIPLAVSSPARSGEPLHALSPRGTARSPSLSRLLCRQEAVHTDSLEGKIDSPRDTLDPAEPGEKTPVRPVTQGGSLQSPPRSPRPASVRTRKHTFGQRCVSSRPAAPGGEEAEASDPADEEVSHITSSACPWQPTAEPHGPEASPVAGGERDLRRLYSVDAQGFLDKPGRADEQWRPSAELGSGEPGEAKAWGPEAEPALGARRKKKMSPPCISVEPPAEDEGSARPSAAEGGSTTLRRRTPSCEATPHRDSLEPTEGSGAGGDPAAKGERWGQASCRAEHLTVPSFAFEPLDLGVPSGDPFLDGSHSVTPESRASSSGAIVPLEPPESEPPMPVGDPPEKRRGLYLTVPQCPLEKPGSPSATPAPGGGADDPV
Chain of Cytochrome P450 2C9 (P11712 whole entry): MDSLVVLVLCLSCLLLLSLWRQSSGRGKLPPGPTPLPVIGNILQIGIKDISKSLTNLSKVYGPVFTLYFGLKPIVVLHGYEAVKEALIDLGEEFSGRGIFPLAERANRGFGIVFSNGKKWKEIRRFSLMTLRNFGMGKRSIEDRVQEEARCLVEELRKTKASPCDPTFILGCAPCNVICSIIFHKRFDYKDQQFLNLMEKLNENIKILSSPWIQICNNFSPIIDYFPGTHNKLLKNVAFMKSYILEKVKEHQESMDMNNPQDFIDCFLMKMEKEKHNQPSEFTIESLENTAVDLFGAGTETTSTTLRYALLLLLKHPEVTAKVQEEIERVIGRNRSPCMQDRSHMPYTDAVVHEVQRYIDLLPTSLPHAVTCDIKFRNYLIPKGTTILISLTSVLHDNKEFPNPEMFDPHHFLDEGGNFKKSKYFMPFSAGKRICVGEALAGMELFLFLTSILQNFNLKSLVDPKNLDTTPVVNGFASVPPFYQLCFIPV
Chain of Induced myeloid leukemia cell differentiation protein Mcl-1 (Q07820 whole entry): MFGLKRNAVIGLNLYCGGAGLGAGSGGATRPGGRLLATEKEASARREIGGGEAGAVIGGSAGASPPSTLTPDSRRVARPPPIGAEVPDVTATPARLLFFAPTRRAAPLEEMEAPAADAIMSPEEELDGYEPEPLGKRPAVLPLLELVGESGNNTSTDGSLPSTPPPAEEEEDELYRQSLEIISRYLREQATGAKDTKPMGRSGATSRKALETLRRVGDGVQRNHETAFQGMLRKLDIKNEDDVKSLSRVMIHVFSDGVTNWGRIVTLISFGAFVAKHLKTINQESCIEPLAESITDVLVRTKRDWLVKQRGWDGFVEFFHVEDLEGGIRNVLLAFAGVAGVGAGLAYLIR
Chain of Genome polyprotein (P29990 2492-3391 limits assumed): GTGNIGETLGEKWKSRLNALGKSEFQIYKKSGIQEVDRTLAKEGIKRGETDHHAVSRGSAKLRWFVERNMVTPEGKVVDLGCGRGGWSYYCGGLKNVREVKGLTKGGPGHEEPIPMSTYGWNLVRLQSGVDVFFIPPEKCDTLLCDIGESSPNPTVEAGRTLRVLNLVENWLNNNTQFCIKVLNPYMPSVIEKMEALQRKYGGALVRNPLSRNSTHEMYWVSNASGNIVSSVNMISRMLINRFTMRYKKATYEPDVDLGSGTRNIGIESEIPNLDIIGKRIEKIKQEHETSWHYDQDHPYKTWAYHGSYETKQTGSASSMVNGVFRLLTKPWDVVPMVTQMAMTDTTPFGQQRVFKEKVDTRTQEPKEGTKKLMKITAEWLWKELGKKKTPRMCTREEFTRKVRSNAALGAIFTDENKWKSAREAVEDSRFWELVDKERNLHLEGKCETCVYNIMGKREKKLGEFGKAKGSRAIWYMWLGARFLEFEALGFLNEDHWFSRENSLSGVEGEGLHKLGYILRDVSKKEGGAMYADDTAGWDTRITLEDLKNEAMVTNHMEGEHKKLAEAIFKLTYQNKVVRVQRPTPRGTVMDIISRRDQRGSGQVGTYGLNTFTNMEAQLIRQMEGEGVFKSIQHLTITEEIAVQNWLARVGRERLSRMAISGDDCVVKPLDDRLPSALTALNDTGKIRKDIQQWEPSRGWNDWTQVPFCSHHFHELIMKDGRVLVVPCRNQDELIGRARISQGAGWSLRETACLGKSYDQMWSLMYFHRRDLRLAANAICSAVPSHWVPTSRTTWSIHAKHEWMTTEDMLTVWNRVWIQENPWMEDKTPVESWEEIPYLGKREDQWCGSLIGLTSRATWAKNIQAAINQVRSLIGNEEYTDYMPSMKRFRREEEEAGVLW
Chain of Cytochrome P450 2D6 (P10635 whole entry): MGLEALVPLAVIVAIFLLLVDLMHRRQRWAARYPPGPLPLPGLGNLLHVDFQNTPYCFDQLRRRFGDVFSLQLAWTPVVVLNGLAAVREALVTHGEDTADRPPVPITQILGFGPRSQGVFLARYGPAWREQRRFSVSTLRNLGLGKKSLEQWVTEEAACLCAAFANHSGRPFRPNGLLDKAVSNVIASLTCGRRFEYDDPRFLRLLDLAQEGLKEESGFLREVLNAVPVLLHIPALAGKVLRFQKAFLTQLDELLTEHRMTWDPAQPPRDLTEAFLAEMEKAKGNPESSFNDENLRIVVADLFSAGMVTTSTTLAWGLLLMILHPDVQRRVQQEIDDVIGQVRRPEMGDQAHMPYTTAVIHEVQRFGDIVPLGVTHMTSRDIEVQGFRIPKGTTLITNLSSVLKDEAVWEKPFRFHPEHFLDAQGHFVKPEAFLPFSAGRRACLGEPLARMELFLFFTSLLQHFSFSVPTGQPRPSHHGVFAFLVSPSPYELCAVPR

Question: With CC(C)(C)OC(=O)NCCCC[C@H](NC(=O)c1[nH]cnc1C(=O)NC1CCN(C(=O)OC(C)(C)C)CC1)C(=O)OC(C)(C)C as the compound, how does the IC50 (Fatty acid synthase) read?
Answer: 1.6 µM (active)

Question: With CN(CCOc1ccc(Cl)cc1)c1ccc(S(=O)(=O)N2CCCCC2)cn1 as the compound, how does the EC50 [1] read?
Answer: 2.82 µM (active)

Question: For Cc1cccc(COCC(Cc2ccccc2)N2CCN(C(=O)c3cc(Cl)cc(Cl)c3)CCC2=O)c1 (centres undefined), which EC50 [1] is on record?
Answer: 3.04 µM (active)

Question: Which results are given for CC(C)(C)C1CCc2c(sc(NC(=O)C3CC=CCC3C(=O)O)c2C#N)C1 (centres undefined)?
Answer: IC50 (Genome polyprotein): 39.4 µM (active); IC50 (Leucine aminopeptidase): 11 µM (active)

Question: Which results are given for CS(=O)(=O)Nc1cccc(-c2cc(NCc3cccs3)ncn2)c1?
Answer: AC50 (Cytochrome P450 2C9): inconclusive; AC50 (Cytochrome P450 2D6): 20 µM (inconclusive)

Question: Which IC50 [2] does the source give for CC1CCCCC12NC(=O)N(CC(=O)Nc1sc3c(c1C(N)=O)CCC3)C2=O (centres undefined) here?
Answer: 3.5 µM (active)

Question: Which EC50 [1] does the source give for O=C1c2ccccc2C(Nc2ccc(F)c(Cl)c2)N1Cc1ccco1 (centres undefined) here?
Answer: 3.88 µM (active)

Question: Which EC50 [3] does the source give for CC(C)Oc1ccc(CNC(=O)CC(c2ccccc2)c2cc(Cl)ccc2O)cc1 (centres undefined) here?
Answer: > 30 µM (not active)

Question: What about the AC50 [4] of the same compound?
Answer: 26.7 µM (active)

Question: And the EC50 [5]?
Answer: 2.17 µM (active)

Question: What about the AC50 [6] of the same compound?
Answer: 28 µM (active)

Question: And the AC50 (Cytochrome P450 1A2)?
Answer: 28.2 µM (inconclusive)

Question: What about the AC50 [7] of the same compound?
Answer: 5.73 µM (active)

Question: For CCCC1(CCC)C(=O)N=C(NCc2ccccc2)NC1=O, which EC50 [8] is on record?
Answer: 14.4 µM (active)

Question: And the EC50 [9]?
Answer: 13.4 µM (active)

Question: For COc1cc(-c2nnc(SCC3(c4ccccc4)OCCO3)o2)cc(OC)c1OC, which AC50 (Cytochrome P450 2C9) is on record?
Answer: inconclusive

Question: Which results are given for CCn1c(/C=C/c2c(C)[nH]c3ccccc23)nc2ccccc2c1=O?
Answer: EC50 [10]: 5.59 µM (active); EC50 [11]: 7.1 µM (active); EC50 [12]: > 300 µM (not active); EC50 [13]: > 99 µM (inactive); EC50 [14]: > 99 µM (inactive); EC50 [15]: > 300 µM (inconclusive)
